Here are results for 24 molecules from patent US12084436B2, “Heterocyclic compound” (Takeda Pharmaceutical Company Limited, priority 2019, dated 2024).

This experiment addresses T1, HDAC6 enzyme (Homo sapiens, UniProt Q9UBN7).
T1 construct: prepared by transducing full length HDAC6 gene into Sf-9 insect cells; GST; purchased SignalChem; host or cells: Sf-9 insect cells
T1 sequence (Q9UBN7 1-1215): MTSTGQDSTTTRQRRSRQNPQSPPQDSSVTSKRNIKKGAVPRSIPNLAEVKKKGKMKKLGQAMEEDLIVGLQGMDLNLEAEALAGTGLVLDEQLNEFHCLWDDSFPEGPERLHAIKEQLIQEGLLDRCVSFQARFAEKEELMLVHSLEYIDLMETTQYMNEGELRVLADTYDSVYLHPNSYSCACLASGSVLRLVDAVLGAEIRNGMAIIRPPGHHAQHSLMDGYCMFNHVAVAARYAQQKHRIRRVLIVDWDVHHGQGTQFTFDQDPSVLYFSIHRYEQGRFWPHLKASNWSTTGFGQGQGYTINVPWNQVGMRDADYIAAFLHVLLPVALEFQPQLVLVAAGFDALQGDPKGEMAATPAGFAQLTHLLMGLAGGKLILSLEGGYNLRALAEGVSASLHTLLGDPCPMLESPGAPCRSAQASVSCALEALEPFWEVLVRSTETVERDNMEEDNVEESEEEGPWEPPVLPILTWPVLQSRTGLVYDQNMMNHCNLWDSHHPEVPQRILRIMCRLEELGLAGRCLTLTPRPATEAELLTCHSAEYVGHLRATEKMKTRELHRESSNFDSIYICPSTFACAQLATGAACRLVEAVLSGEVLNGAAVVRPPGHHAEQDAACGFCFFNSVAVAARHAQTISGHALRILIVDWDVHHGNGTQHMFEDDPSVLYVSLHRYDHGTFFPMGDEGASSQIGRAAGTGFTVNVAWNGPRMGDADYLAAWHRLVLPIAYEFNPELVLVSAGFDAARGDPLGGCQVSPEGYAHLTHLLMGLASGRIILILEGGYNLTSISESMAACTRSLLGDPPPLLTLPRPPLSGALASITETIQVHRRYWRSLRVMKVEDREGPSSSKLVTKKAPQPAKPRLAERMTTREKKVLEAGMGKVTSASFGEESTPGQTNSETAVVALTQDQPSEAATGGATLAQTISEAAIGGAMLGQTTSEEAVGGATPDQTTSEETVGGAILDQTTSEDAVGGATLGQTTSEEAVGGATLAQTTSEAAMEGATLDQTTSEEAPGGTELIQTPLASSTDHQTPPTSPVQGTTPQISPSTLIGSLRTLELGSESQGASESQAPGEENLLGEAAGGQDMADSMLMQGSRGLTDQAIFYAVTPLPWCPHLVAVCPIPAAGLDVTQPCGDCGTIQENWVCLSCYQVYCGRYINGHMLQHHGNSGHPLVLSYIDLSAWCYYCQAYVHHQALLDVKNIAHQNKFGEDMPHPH
The experiment can be described thus: HDAC6 enzyme inhibitory assay (HDAC-Glo I/II Assay kit, luminescence). The format is biochemical. Conditions: 10 μM test compound, wells without enzyme = 100% inhibition; for inhibition at 10 µM: read-out: HDAC6 inhibitory rate (%) (10 μM). The method, then: HDAC6 Enzyme Inhibitory Assay
HDAC6 enzyme prepared by transducing full length HDAC6 gene into Sf-9 insect cells and purifying by GST affinity column were purchased from SignalChem. Using this enzyme, HDAC6 enzyme inhibitory activities of the compound of the present invention were evaluated. Enzymes were used after preserved at −70° C. HDAC6 enzyme inhibitory activity of the compound of the present invention was measured using HDAC-Glo™ I/II Assay kit (Promega) according to the following experimental method. The test compound diluted with assay buffer (24 mM Tris-HCl (pH 7.5), 1 mM MgCl2, 0.35 mM KCl, 135 mM NaCl, 0.6 mM Glutathione, 0.01% Tween-20) was added to a 384-well plate by each 2 μL. Then, HDAC6 enzyme solution diluted with assay buffer was added thereto by each 4 μL, and the plate was incubated at room temperature for 60 min. After incubated, HDAC substrate-Developer solution prepared according to Promega protocol attached to the assay kit was added to the 384-well plate by each 2 μL, and the enzyme reaction was started. After reacting at room temperature for 20 min, luminescence level was measured using plate reader Envision (PerkinElmer). The inhibitory activity of each compound of Example was calculated as a relative activity value when luminescence level in wells without enzyme is considered as 100% inhibition.

Take `Fc1cccc(Cn2ccnc2-c2cc(F)cc(-c3nnc(C(F)F)o3)c2)c1` [Example 44a, 2-(difluoromethyl)-5-(3-fluoro-5-{1-[(3-fluorophenyl)methyl]-1H-imidazol-2-yl}phenyl)-1,3,4-oxadiazole]: the inhibition at 10 µM was determined as 99%.

For `O=C1c2cc(-c3nnc(C(F)F)o3)ccc2CN1NCc1ccc(F)cc1` [Example 6c, 6-[5-(difluoromethyl)-1,3,4-oxadiazol-2-yl]-2-{[(4-fluorophenyl)methyl]amino}-2,3-dihydro-1H-isoindol-1-one], the inhibition at 10 µM was 99%.

As to `CC(c1cccc(F)c1)n1ccnc1-c1cc(-c2nnc(C(F)F)o2)ccn1` (stereo not drawn) [Example 92a, 4-[5-(difluoromethyl)-1,3,4-oxadiazol-2-yl]-2-{1-[1-(3-fluorophenyl)ethyl]-1H-imidazol-2-yl}pyridine], the inhibition at 10 µM was found to be 100%.

As for `CN1C(=O)c2cc(-c3nnc(C(F)F)o3)ccc2OC1(C)c1ccc(F)cc1` (stereo not drawn) [Example 7b, 6-[5-(difluoromethyl)-1,3,4-oxadiazol-2-yl]-2-(4-fluorophenyl)-2,3-dimethyl-2,3-dihydro-4H-1,3-benzoxazin-4-one], the inhibition at 10 µM turned out to be 100%.

Consider `CN1C(=O)c2cc(-c3nnc(C(F)F)o3)ccc2OC1(C)c1ccccc1Cl` (stereo not drawn) [Example 16b, 2-(2-chlorophenyl)-6-[5-(difluoromethyl)-1,3,4-oxadiazol-2-yl]-2,3-dimethyl-2,3-dihydro-4H-1,3-benzoxazin-4-one], for which the inhibition at 10 µM is 98%.

`Cc1nc(Cn2ccnc2-c2cc(F)cc(-c3nnc(C(F)F)o3)c2)co1` [Example 57a, 2-(difluoromethyl)-5-(3-fluoro-5-{1-[(2-methyl-1,3-oxazol-4-yl)methyl]-1H-imidazol-2-yl}phenyl)-1,3,4-oxadiazole]: the inhibition at 10 µM turned out to be 97%.

Turning to `CN1C(=O)c2cc(-c3nnc(C(F)F)o3)ccc2OC1(C)c1cccc(Cl)c1` (stereo not drawn) [Example 19b, 2-(3-chlorophenyl)-6-[5-(difluoromethyl)-1,3,4-oxadiazol-2-yl]-2,3-dimethyl-2,3-dihydro-4H-1,3-benzoxazin-4-one], the inhibition at 10 µM was 100%.

Take `Cc1cc(COc2cccnc2-c2cc(F)cc(-c3nnc(C(F)F)o3)c2)nn1C` [Example 10a, 2-(3-[5-(difluoromethyl)-1,3,4-oxadiazol-2-yl]-5-fluorophenyl}-3-[(1,5-dimethyl-1H-pyrazol-3-yl)methoxy]pyridine]: the inhibition at 10 µM came out at 96%.

In the case of `O=C1c2cc(-c3nnc(C(F)F)o3)ccc2CN1NC1CCOCC1` [Example 34c, 6-[5-(difluoromethyl)-1,3,4-oxadiazol-2-yl]-2-[(oxan-4-yl)amino]-2,3-dihydro-1H-isoindol-1-one], the inhibition at 10 µM came out at 92%.

Take `CN1C(=O)c2cc(-c3nnc(C(F)F)o3)ccc2OC1(C)c1ccc(F)cc1` (single isomer, unassigned; isomer 2) [Example 9b, 6-[5-(difluoromethyl)-1,3,4-oxadiazol-2-yl]-2-(4-fluorophenyl)-2,3-dimethyl-2,3-dihydro-4H-1,3-benzoxazin-4-one (optical isomer 2)]: the “HDAC6 inhibitory rate (%) (10 μM)” value came to 96%.

Regarding `CN(C(=O)OC(C)(C)C)N1Cc2ncc(-c3nnc(C(F)F)o3)cc2C1=O` [Example 68c, tert-butyl {3-[5-(difluoromethyl)-1,3,4-oxadiazol-2-yl]-5-oxo-5,7-dihydro-6H-pyrrolo[3,4-b]pyridin-6-yl}methylcarbamate], the inhibition at 10 µM turned out to be 99%.

For the molecule `CN1C(=O)c2cc(-c3nnc(C(F)F)o3)ccc2CC1c1ccc(F)cc1` (single isomer, unassigned; isomer 2) [Example 42b, 7-[5-(difluoromethyl)-1,3,4-oxadiazol-2-yl]-3-(4-fluorophenyl)-2-methyl-3,4-dihydroisoquinolin-1(2H)-one (optical Isomer 2)], the “HDAC6 inhibitory rate (%) (10 μM)” value was determined as 93%.

As to `CN(CC1CCOCC1)N1Cc2ccc(-c3nnc(C(F)F)o3)cc2C1=O` [Example 41c, 6-[5-(difluoromethyl)-1,3,4-oxadiazol-2-yl]-2-{methyl[(oxan-4-yl)methyl]amino}-2,3-dihydro-1H-isoindol-1-one], the inhibition at 10 µM was determined as 99%.

With `Cc1nc(Cn2ccnc2-c2cc(F)cc(-c3nnc(C(F)F)o3)c2)no1` [Example 55a, 3-[(2-{3-[5-(difluoromethyl)-1,3,4-oxadiazol-2-yl]-5-fluorophenyl}-1H-imidazol-1-yl)methyl]-5-methyl-1,2,4-oxadiazole], the inhibition at 10 µM was 97%.

On to `CN1C(=O)c2cc(-c3nnc(C(F)F)o3)cnc2CC1(C)c1ccc(F)c(F)c1` (stereo not drawn) [Example 38b, 3-[5-(difluoromethyl)-1,3,4-oxadiazol-2-yl]-7-(3,4-difluorophenyl)-6,7-dimethyl-7,8-dihydro-1,6-naphthyridin-5(6H)-one], for which the inhibition at 10 µM amounted to 101%.

Turning to `CCN(Cc1ccccc1)N1Cc2ccc(-c3nnc(C(F)F)o3)cc2C1=O` [Example 8c, 2-[benzyl (ethyl)amino]-6-[5-(difluoromethyl)-1,3,4-oxadiazol-2-yl]-2,3-dihydro-1H-isoindol-1-one], the inhibition at 10 µM is 95%.

For `N#Cc1cccc(Cn2ccnc2-c2cc(-c3nnc(C(F)F)o3)ccn2)n1` [Example 94a, 6-[(2-{4-[5-(difluoromethyl)-1,3,4-oxadiazol-2-yl]pyridin-2-yl]-1H-imidazol-1-yl)methyl]pyridine-2-carbonitrile], the inhibition at 10 µM is 99%.

For `Fc1cc(-c2nnc(C(F)F)o2)cc(-c2ncccc2OC2CCOCC2)c1` [Example 8a, 2-{3-[5-(difluoromethyl)-1,3,4-oxadiazol-2-yl]-5-fluorophenyl}-3-[(oxan-4-yl)oxy]pyridine], the inhibition at 10 µM was found to be 98%.

`O=C1c2cc(-c3nnc(C(F)F)o3)ccc2CN1NCc1ccc(F)cn1` [Example 15c, 6-[5-(difluoromethyl)-1,3,4-oxadiazol-2-yl]-2-{[(5-fluoropyridin-2-yl)methyl]amino}-2,3-dihydro-1H-isoindol-1-one]: the inhibition at 10 µM worked out at 99%.

Take `O=C1NN(C2CCOCC2)Cc2ccc(-c3nnc(C(F)F)o3)cc21` [Example 28b, 7-[5-(difluoromethyl)-1,3,4-oxadiazol-2-yl]-3-(oxan-4-yl)-3,4-dihydrophthalazin-1(2H)-one]: the inhibition at 10 µM was determined as 97%.

Take `CN(Cc1cccc(C(F)F)c1)N1Cc2ccc(-c3nnc(C(F)F)o3)cc2C1=O` [Example 56c, 6-[5-(difluoromethyl)-1,3,4-oxadiazol-2-yl]-2-[{[3-(difluoromethyl)phenyl]methyl} (methyl)amino]-2,3-dihydro-1H-isoindol-1-one]: the inhibition at 10 µM came out at 99%.

For the molecule `Fc1ccc(Cn2ccnc2-c2cc(-c3nnc(C(F)F)o3)ccn2)nc1` [Example 76a, 4-[5-(difluoromethyl)-1,3,4-oxadiazol-2-yl]-2-{1-[(5-fluoropyridin-2-yl)methyl]-1H-imidazol-2-yl}pyridine], the inhibition at 10 µM was 100%.

As to `O=C1c2cc(-c3nnc(C(F)F)o3)ccc2CN1Nc1ccc(F)c(F)c1` [Example 36c, 2-(3,4-difluoroanilino)-6-[5-(difluoromethyl)-1,3,4-oxadiazol-2-yl]-2,3-dihydro-1H-isoindol-1-one], the inhibition at 10 µM is 98%.

Turning to `CC(=O)Nc1ccc(CN(C)N2Cc3ccc(-c4nnc(C(F)F)o4)cc3C2=O)cc1` [Example 52c, N-(4-{[{6-[5-(difluoromethyl)-1,3,4-oxadiazol-2-yl]-1-oxo-1,3-dihydro-2H-isoindol-2-yl}(methyl)amino]methyl}phenyl) acetamide], the inhibition at 10 µM turned out to be 100%.
